Experiments:
μ-opioid receptor [1] = biological target: T1, μ-opioid receptor (Homo sapiens, UniProt P35372); test: cell-based; design: purchased Perkin Elmer, Shelton, Conn; settings: U2OS cells; for Emax: read-out: β-Arr2 μ Emax; for EC50: read-out: β-Arr2 μ EC50
μ-opioid receptor [2] = biological target: T1, μ-opioid receptor; test: μ-opioid receptor GTPγS functional assay, U2OS cells; settings: for Emax: read-out: GTPγS μ Emax
κ-opioid receptor [3] = biological target: T2, κ-opioid receptor (Homo sapiens, UniProt P41145); test: κ-opioid receptor GTPγS functional assay, U2OS cells; format: biochemical; design: expressed in transfected cells; host or cells: U-2 OS; settings: U2OS cells; for EC50: read-out: GTPγS κ EC50
T2 sequence (P41145 whole entry): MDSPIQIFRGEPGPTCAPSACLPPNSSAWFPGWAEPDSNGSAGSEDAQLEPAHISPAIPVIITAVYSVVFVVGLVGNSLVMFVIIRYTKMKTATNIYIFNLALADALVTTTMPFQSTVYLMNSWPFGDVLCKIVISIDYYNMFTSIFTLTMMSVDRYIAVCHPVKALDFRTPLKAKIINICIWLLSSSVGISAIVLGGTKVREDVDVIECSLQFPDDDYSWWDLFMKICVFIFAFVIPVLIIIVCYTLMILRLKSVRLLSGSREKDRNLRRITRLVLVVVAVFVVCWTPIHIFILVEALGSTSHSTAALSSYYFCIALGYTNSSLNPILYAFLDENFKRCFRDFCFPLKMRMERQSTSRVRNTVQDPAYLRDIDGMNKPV
Protocol: Plates were incubated for 30 min at a temperature of about 25° C. with shaking.

μ-opioid receptor [4] = biological target: T1, μ-opioid receptor; test: biochemical; design: purchased Perkin Elmer, Shelton, Conn; host or cells: HEK-293 or CHO; settings: HEK-293 or CHO cells; for Emax: relative to DAMGO, read-out: GTPγS μ Emax; for EC50: read-out: GTPγS μ EC50
κ-opioid receptor [5] = biological target: T2, κ-opioid receptor; test: κ-opioid receptor β-Arr2 activity response, U2OS cells; format: cell-based; design: expressed in transfected cells; host or cells: U-2 OS; settings: U2OS cells

T1 sequence (P35372 whole entry, species assumed): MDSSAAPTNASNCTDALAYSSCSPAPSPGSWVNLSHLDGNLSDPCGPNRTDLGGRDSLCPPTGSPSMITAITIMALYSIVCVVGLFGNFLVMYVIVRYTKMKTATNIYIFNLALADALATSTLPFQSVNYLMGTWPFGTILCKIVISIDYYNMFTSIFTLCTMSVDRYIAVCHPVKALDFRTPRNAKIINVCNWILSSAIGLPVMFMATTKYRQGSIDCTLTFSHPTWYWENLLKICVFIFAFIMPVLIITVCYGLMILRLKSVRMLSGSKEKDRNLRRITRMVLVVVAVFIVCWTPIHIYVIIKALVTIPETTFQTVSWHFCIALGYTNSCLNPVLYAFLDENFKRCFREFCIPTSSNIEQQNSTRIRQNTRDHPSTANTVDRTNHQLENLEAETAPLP

SMILES | Emax (μ-opioid receptor [1]) [%] | EC50 (μ-opioid receptor [2]) [nM] | Emax (μ-opioid receptor [2]) [%] | Emax (κ-opioid receptor [3]) [%] | EC50 (κ-opioid receptor [3]) [nM] | Emax (μ-opioid receptor [4]) [%] | EC50 (μ-opioid receptor [1]) [nM] | EC50 (μ-opioid receptor [4]) [nM] | Emax (κ-opioid receptor [5]) [%]
C[C@H]1[C@H]2Cc3ccc(O)cc3[C@]1(CCNS(=O)(=O)C1CC1)CCN2CC1CC1 [Compound 6, N-(2-((2R,6S,11R)-3-(cyclopropyl-methyl)-8-hydroxy-11-methyl-2,3,4,5-tetrahydro-2,6-methanobenzo[d]azocin-6(1H)-yl)ethyl)-cyclopropanesulfonamide] | -0.33 ± 0.67 | 0.88 ± 0.095 | 30.7 ± 0.88 | 107 ± 2.65 | 0.072 ± 0.013 | -0.33 ± 0.67 |  |  | 
C[C@H]1[C@H]2Cc3ccc(O)cc3[C@]1(CCNC(=O)c1ccc(C(N)=O)cc1)CCN2C [Compound 86, N-(2-((2R,6R,11R)-8-hydroxy-3,11-dimethyl-2,3,4,5-tetrahydro-2,6-methanobenzo[d]azocin-6(1H)-yl)ethyl)terephthalamide] | 11.2 ± 0.69 |  |  |  |  | 48.2 ± 1.26 | 289 ± 91.8 | 252 ± 23.5 | 
C[C@H]1[C@H]2Cc3ccc(O)cc3[C@]1(CCNS(C)(=O)=O)CCN2CC1CC1 [Compound 3, N-(2-((2R,6S,11R)-3-(cyclopropyl-methyl)-8-hydroxy-11-methyl-2,3,4,5-tetrahydro-2,6-methanobenzo[d]azocin-6(1H)-yl)ethyl)methanesulfonamide] | 0 | 0.85 ± 0.11 | 16.7 ± 0.33 | 104 ± 2.52 | 0.32 ± 0.031 |  |  |  | -0.33 ± 0.67
C[C@H]1[C@H]2Cc3ccc(O)cc3[C@]1(CCN1CCN(C(c3ccc(F)cc3)c3ccc(F)cc3)CC1)CCN2C [Compound 8, (2R,6R,11R)-6-(2-(4-(bis(4-fluoro-phenyl)methyl)piperazin-1-yl)ethyl)-3,11-dimethyl-1,2,3,4,5,6-hexahydro-2,6-methanobenzo[d]azocin-8-ol] | 70.7 ± 6.98 | 72.7 ± 4.92 | 100 ± 3.06 |  |  | 47 ± 1.53 | 4710 ± 227 | 796 ± 72.2 | 
C[C@H]1[C@H]2Cc3ccc(O)cc3[C@]1(CCN1CCC(N(C3CC3)S(=O)(=O)c3ccccc3)CC1)CCN2C [Compound 7, N-cyclopropyl-N-(1-(2-((2R,6R,11R)-8-hydroxy-3,11-dimethyl-2,3,4,5-tetrahydro-2,6-methanobenzo[d]azocin-6(1H)-yl)ethyl)piperidin-4-yl)benzene-sulfonamide] | 23.4 ± 1.33 | 83.1 ± 1.96 | 99 ± 1 |  |  | 54.5 ± 4.33 | 503 ± 116 | 624 ± 65.9 | 
C[C@H]1[C@H]2Cc3ccc(O)cc3[C@]1(CCNC(=O)Nc1ccc(F)cc1)CCN2C [Compound 76, 1-(4-fluorophenyl)-3-(2-((2R,6R,11R)-8-hydroxy-3,11-dimethyl-2,3,4,5-tetrahydro-2,6-methanobenzo[d]azocin-6(1H)-yl)ethyl)urea] | 28.9 ± 1.69 |  |  |  |  | 58.5 ± 2.78 | 28.4 ± 3.98 | 28.8 ± 10.5 | 
C[C@H]1[C@H]2Cc3ccc(O)cc3[C@]1(CCNC(=O)Nc1ccc(F)cc1)CCN2CC1CC1 [Compound 18, 1-(2-((2R,6R,11R)-3-(cyclopropyl-methyl)-8-hydroxy-11-methyl-2,3,4,5-tetrahydro-2,6-methanobenzo[d]azocin-6(1H)-yl)ethyl)-3-(4-fluorophenyl)urea] | 4.38 ± 0.35 |  |  |  |  | 22.4 ± 1.04 | 0.31 ± 0.063 | 0.12 | 
C[C@H]1[C@H]2Cc3ccc(O)cc3[C@]1(CCNS(=O)(=O)c1ccc(F)cc1)CCN2C [Compound 69, 4-fluoro-N-(2-((2R,6S,11R)-8-hydroxy-3,11-dimethyl-2,3,4,5-tetrahydro-2,6-methanobenzo[d]azocin-6(1H)-yl)ethyl)-benzenesulfonamide] | 14.7 ± 0.88 |  |  |  |  | 59.3 ± 1.2 | 2.97 ± 0.34 | 5.42 ± 1.11 | 
COc1ccc2c(c1)[C@]1(CCNCCCn3ccnc3)CCN(C)[C@H](C2)[C@@H]1C [Compound 55, 3-(1H-imidazol-1-yl)-N-(2-((2R,6R,11R)-8-methoxy-3,11-dimethyl-2,3,4,5-tetrahydro-2,6-methanobenzo[d]azocin-6(1H)-yl)ethyl)propan-1-amine] |  | 14500 ± 653 | 82 ± 2.65 | 113 ± 1.45 | 14700 ± 1240 |  |  |  | 
COc1ccc2c(c1)[C@]1(CCNCCc3ccc(S(N)(=O)=O)cc3)CCN(C)[C@H](C2)[C@@H]1C [Compound 51, 4-(2-((2-((2R,6R,11R)-8-methoxy-3,11-dimethyl-2,3,4,5-tetrahydro-2,6-methanobenzo[d]azocin-6(1H)-yl)ethyl)-amino)ethyl)benzenesulfonamide] |  | 6710 ± 257 | 76.7 ± 3.71 | 96.3 ± 0.67 | 6280 ± 318 |  |  |  | 
C[C@H]1[C@H]2Cc3ccc(O)cc3[C@]1(CCNC(=O)[C@@H]1CCC(=O)N1)CCN2C [Compound 72, (S)-N-(2-((2R,6R,11R)-8-hydroxy-3,11-dimethyl-2,3,4,5-tetrahydro-2,6-methano-benzo[d]azocin-6(1H)-yl)ethyl)-5-oxopyrrolidine-2-carboxamide] | 5.8 ± 0.42 |  |  |  |  | 37.2 ± 1.8 | 267 ± 63.3 | 241 ± 56.7 | 
C[C@H]1[C@H]2Cc3ccc(O)cc3[C@]1(CCNC(=O)NCc1ccccc1)CCN2CC1CC1 [Compound 21, 1-benzyl-3-(2-((2R,6R,11R)-3-(cyclopropylmethyl)-8-hydroxy-11-methyl-2,3,4,5-tetrahydro-2,6-methanobenzo[d]azocin-6(1H)-yl)ethyl)urea] | 30.1 ± 0.81 |  |  |  |  | 54.7 ± 2.63 | 0.38 ± 0.11 | 0.28 ± 0.027 | 
C[C@H]1[C@H]2Cc3ccc(O)cc3[C@]1(CCNC(=O)Nc1cccc(F)c1)CCN2C [Compound 79, 1-(3-fluorophenyl)-3-(2-((2R,6R,11R)-8-hydroxy-3,11-dimethyl-2,3,4,5-tetrahydro-2,6-methanobenzo[d]azocin-6(1H)-yl)ethyl)urea] | 58.9 ± 7.55 |  |  |  |  | 71.6 ± 5.96 | 39.1 ± 7.13 | 19.7 ± 1.11 | 
C[C@H]1[C@H]2Cc3ccc(O)cc3C1(CCNS(=O)(=O)N(C)C)CCN2C [Compound 80] | 2.62 ± 0.36 |  |  |  |  | 27.9 ± 0.47 | 1180 ± 822 | 134 ± 3.21 | 
C[C@H]1[C@H]2Cc3ccc(O)cc3[C@]1(CC(=O)NCCc1ccc(S(N)(=O)=O)cc1)CCN2C [Compound 62, 2-((2R,6S,11R)-8-hydroxy-3,11-dimethyl-2,3,4,5-tetrahydro-2,6-methanobenzo[d]azocin-6(1H)-yl)-N-(4-sulfamoylphenethyl)acetamide] | -1 | 172 ± 18.7 | 49.7 ± 0.88 | 35.7 ± 1.67 | 1120 ± 53.4 | 17 ± 1.53 |  | 538 ± 22.9 | 
C[C@H]1[C@H]2Cc3ccc(O)cc3[C@]1(CCNC(=O)Nc1ccccc1)CCN2C [Compound 68, 1-(2-((2R,6R,11R)-8-hydroxy-3,11-dimethyl-2,3,4,5-tetrahydro-2,6-methano-benzo[d]azocin-6(1H)-yl)ethyl)-3-phenylurea] | 72.3 ± 0.88 |  |  |  |  | 75.8 ± 2.39 | 18.9 ± 1.23 | 28.5 ± 2.07 | 
C[C@H]1[C@H]2Cc3ccc(O)cc3[C@]1(CCNC(=O)NS(=O)(=O)c1ccc(F)cc1)CCN2C [Compound 66, 4-fluoro-N-((2-((2R,6R,11R)-8-hydroxy-3,11-dimethyl-2,3,4,5-tetrahydro-2,6-methanobenzo[d]azocin-6(1H)-yl)-ethyl)carbamoyl)benzenesul-fonamide] | 15.9 ± 0.72 |  |  |  |  | 37.3 ± 0.88 | 2290 ± 703 | 174 ± 13.1 | 
C[C@H]1[C@H]2Cc3ccc(O)cc3[C@]1(CCNC(=O)c1ccc(F)cc1)CCN2C [Compound 83, 4-Fluoro-N-(2-((2R,6R,11R)-8-hydroxy-3,11-dimethyl-2,3,4,5-tetrahydro-2,6-methanobenzo[d]azocin-6(1H)-yl)ethyl)benzamide] | 46.5 ± 1.93 |  |  |  |  | 77.2 ± 3.52 | 13.8 ± 3.03 | 13.6 ± 3.38 | 
COc1ccc2c(c1)[C@@]1(CCOCc3ccccc3)CCN(C)[C@@H](C2)[C@H]1C [Compound 47, (2S,6R,11S)-6-(2-(benzyloxy)ethyl)-8-methoxy-3,11-dimethyl-1,2,3,4,5,6-hexahydro-2,6-methanobenzo[d]azocine] |  | 8990 ± 1630 | 72.3 ± 3.84 | 99.3 ± 0.67 | 3750 ± 207 |  |  |  | 
C[C@H]1[C@H]2Cc3ccc(O)cc3[C@]1(CCNC(=O)CCc1ccccc1)CCN2C [Compound 85, N-(2-((2R,6R,11R)-8-hydroxy-3,11-dimethyl-2,3,4,5-tetrahydro-2,6-methanobenzo[d]azocin-6(1H)-yl)ethyl)-3-phenylpropanamide] | 39.8 ± 0.77 |  |  |  |  | 69.5 ± 2.23 | 6.55 ± 2.88 | 6.51 ± 0.17 | 
C[C@H]1[C@H]2Cc3ccc(O)cc3[C@]1(CCNC(=O)Nc1ccccc1F)CCN2C [Compound 78, 1-(2-fluorophenyl)-3-(2-((2R,6R,11R)-8-hydroxy-3,11-dimethyl-2,3,4,5-tetrahydro-2,6-methanobenzo[d]azocin-6(1H)-yl)ethyl)urea] | 67 ± 3.71 |  |  |  |  | 71 ± 3.61 | 90.5 ± 15.4 | 33.5 ± 4.9 | 
COC[C@@H]1CCCN1CC[C@]12CCN(C)[C@H](Cc3ccc(OC)cc31)[C@@H]2C [Compound 56, (2R,6S,11R)-8-methoxy-6-(2-((S)-2-(methoxymethyl)pyrrolidin-1-yl)ethyl)-3,11-dimethyl-1,2,3,4,5,6-hexahydro-2,6-methanobenzo[d]azocine] |  | 5990 ± 1220 | 72.3 ± 2.85 | 94.7 ± 4.48 | 5490 ± 434 |  |  |  | 

From US10130615B2, “Benzomorphan analogs and the use thereof” (priority 2014, dated 2018)
